target: Isoleucine--tRNA ligase (Escherichia coli) (UniProt P00956); assay: Inhibitory activity against Escherichia coli Isoleucyl-tRNA synthetase was determined
Sequence (P00956 whole entry, looked up): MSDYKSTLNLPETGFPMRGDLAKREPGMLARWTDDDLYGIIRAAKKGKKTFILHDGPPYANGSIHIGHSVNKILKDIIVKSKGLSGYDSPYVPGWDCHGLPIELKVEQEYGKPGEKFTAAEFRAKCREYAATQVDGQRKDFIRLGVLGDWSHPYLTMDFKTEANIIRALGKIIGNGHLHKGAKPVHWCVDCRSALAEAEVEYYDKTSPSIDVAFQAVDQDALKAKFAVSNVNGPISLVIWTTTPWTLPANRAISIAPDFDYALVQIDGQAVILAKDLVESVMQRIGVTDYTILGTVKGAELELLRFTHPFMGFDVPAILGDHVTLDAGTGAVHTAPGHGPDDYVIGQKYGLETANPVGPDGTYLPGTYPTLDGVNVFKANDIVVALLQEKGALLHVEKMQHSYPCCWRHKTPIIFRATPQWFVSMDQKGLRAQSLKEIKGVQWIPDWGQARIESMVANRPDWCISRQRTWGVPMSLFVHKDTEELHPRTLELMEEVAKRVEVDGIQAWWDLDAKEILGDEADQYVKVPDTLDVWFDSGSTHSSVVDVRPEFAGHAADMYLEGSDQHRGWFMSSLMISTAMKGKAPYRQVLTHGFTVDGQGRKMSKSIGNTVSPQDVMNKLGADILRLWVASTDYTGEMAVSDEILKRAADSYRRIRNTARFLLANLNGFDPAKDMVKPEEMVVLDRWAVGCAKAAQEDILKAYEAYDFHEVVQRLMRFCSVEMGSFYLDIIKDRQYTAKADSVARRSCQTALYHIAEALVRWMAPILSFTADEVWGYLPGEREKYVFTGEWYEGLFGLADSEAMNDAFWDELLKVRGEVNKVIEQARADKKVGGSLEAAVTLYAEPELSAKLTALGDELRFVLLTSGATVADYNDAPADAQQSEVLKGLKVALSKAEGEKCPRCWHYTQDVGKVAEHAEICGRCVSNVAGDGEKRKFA

Row | IC50 [nM] | Compound
1 | 98 | CC[C@H](C)[C@H](N)C(=O)NS(=O)(=O)OC[C@H]1O[C@@H](n2cnc3c(N)ncnc32)[C@H](O)[C@@H]1O

target: Isoleucine--tRNA ligase (Escherichia coli) (UniProt P00956); assay: as above; remark: another data set of the same source

Row | Compound | IC50 [µM]
2 | CC[C@H](C)[C@H](N)C(=O)NS(=O)(=O)NOC[C@H]1OC(n2cnc3c(N)ncnc32)[C@H](O)[C@@H]1O (stereo partly specified) | 12.8
3 | CC[C@H](C)[C@H](N)C(=O)NS(=O)(=O)N(O)C[C@H]1OC(n2cnc3c(N)ncnc32)[C@H](O)[C@@H]1O (stereo partly specified) | 132

More lines, now with the values ahead:

Row | IC50 [µM] | Compound
4 | 22.2 | CC[C@H](C)[C@H](N)C(=O)NS(=O)(=O)OC[C@H]1OC(n2cnc3c(NC)nc(I)nc32)[C@H](O)[C@@H]1O (stereo partly specified)
5 | 0.039 | C#Cc1nc(N)c2ncn(C3O[C@H](COS(=O)(=O)NC(=O)[C@@H](N)[C@@H](C)CC)[C@@H](O)[C@H]3O)c2n1 (stereo partly specified)
6 | 0.014 | CC[C@H](C)[C@H](N)C(=O)NS(=O)(=O)OC[C@H]1OC(n2cnc3c(N)nc(I)nc32)[C@H](O)[C@@H]1O (stereo partly specified)
7 | 5.5 | CC[C@H](C)[C@H](N)C(=O)NS(=O)(=O)OC[C@H]1OC(n2cnc3c(N)nc(Cl)nc32)[C@H](O)[C@@H]1O (stereo partly specified)
8 | 1.1 | CCCCC#Cc1nc(N)c2ncn(C3O[C@H](COS(=O)(=O)NC(=O)[C@@H](N)[C@@H](C)CC)[C@@H](O)[C@H]3O)c2n1 (stereo partly specified)

target: Methionine--tRNA ligase (Escherichia coli) (UniProt P00959); assay: Inhibitory activity against Escherichia coli Methionyl-tRNA synthetase was determined
Sequence (P00959 whole entry, looked up): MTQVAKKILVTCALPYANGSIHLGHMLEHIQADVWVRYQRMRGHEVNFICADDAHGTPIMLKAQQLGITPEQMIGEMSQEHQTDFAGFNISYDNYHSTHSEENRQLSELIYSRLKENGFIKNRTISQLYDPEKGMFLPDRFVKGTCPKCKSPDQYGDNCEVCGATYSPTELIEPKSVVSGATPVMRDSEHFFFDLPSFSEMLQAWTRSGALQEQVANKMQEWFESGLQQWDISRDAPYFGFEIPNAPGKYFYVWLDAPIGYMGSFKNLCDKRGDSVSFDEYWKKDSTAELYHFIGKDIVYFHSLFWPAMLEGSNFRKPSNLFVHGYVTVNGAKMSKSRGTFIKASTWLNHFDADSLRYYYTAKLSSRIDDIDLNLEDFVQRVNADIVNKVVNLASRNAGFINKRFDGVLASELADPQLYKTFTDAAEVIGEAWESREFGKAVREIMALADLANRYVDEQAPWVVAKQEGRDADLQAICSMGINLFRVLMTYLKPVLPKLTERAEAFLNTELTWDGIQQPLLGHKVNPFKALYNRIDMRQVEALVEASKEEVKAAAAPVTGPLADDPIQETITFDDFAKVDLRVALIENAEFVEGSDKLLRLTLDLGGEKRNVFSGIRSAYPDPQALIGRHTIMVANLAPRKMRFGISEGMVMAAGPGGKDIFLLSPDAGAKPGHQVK

Row | IC50 [nM] | Compound
9 | 7 | CSCC[C@H](N)C(=O)NS(=O)(=O)OC[C@H]1O[C@@H](n2cnc3c(N)ncnc32)[C@H](O)[C@@H]1O

target: Methionine--tRNA ligase (Escherichia coli) (UniProt P00959); assay: as above; remark: another data set of the same source

Row | IC50 [µM] | Compound
10 | 1.1 | C#Cc1nc(N)c2ncn(C3O[C@H](COS(=O)(=O)NC(=O)[C@@H](N)CCSC)[C@@H](O)[C@H]3O)c2n1 (stereo partly specified)
11 | 1.9 | CCCCC#Cc1nc(N)c2ncn(C3O[C@H](COS(=O)(=O)NC(=O)[C@@H](N)CCSC)[C@@H](O)[C@H]3O)c2n1 (stereo partly specified)
12 | 106 | CSCC[C@H](N)C(=O)NS(=O)(=O)N(O)C[C@H]1OC(n2cnc3c(N)ncnc32)[C@H](O)[C@@H]1O (stereo partly specified)
13 | 7.4 | CSCC[C@H](N)C(=O)NS(=O)(=O)OC[C@H]1OC(n2cnc3c(N)nc(Cl)nc32)[C@H](O)[C@@H]1O (stereo partly specified)
14 | 19.7 | CSCC[C@H](N)C(=O)NS(=O)(=O)NOC[C@H]1OC(n2cnc3c(N)ncnc32)[C@H](O)[C@@H]1O (stereo partly specified)
15 | 1.2 | CSCC[C@H](N)C(=O)NS(=O)(=O)OC[C@H]1OC(n2cnc3c(N)nc(I)nc32)[C@H](O)[C@@H]1O (stereo partly specified)
16 | 191 | CNc1nc(I)nc2c1ncn2C1O[C@H](COS(=O)(=O)NC(=O)[C@@H](N)CCSC)[C@@H](O)[C@H]1O (stereo partly specified)

— BindingDB's records for doi:10.1016/s0960-894x(03)00020-9 (Seoul National University, 2003)
